# Assay results: patent US20170240556A1, “BIFLUORODIOXALANE-AMINO-BENZIMIDAZOLE KINASE INHIBITORS FOR THE TREATMENT OF CANCER, AUTOIMMUNEINFLAMMATION AND CNS DISORDERS” (4SC DISCOVERY GMBH, priority 2012, published 2017)
# pIC50: −log10 of the molar value.
# Key:
# [1] = biological target: Casein kinase 1 delta (CSKN1D) (Homo sapiens, UniProt P48730); test: Casein kinase assay, CK1 delta; assay type: biochemical; settings: recombinant CSKN1D 5 nM, ATP 10 μM
# [2] = biological target: Casein kinase 1 epsilon (CSKN1E) (Homo sapiens, UniProt P49674); test: Casein kinase assay, CK1 epsilon; assay type: biochemical; settings: recombinant CSKN1E 30 nM, ATP 10 μM
# Sequence of Casein kinase 1 epsilon (CSKN1E) (P49674 whole entry): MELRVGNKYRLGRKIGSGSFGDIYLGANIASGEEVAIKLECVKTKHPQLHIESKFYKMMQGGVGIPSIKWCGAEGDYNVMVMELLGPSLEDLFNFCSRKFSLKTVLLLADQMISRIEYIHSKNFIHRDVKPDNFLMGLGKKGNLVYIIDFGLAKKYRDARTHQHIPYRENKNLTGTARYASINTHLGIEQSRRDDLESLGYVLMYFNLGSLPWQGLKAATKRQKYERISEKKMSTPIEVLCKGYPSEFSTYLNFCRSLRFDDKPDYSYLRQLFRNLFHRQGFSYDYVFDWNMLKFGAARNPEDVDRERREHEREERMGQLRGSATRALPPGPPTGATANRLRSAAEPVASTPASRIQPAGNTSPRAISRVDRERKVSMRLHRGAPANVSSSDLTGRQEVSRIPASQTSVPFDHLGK
# Method: The recombinant protein Casein kinase 1 delta (CSKN1D) was added to the substrate solution in a concentration of 5 nM and gently mixed. Dilution series in of compounds of the present invention in DMSO were added to the reaction mixture, followed after 20 min by addition of a mixture of ATP and ^33P-ATP (specific activity 0.01 μCi/μl final) to a final concentration of 10 μM. Reactions were carried out at 25° C. for 120 min, followed by spotting the reactions onto P81 ion exchange filter paper. Unbound phosphate was removed by washing of the filters in 0.75% phosphoric acid. […] IC50 values and curve fits were obtained using the program Prism® (Graph Pad Software).
# The above assay was also used to determine the inhibitory capacity of the compounds of the present invention on Casein Kinase 1 epsilon, wherein instead of CSKN1D, recombinant protein Casein kinase 1 epsilon (CSKN1E) was added to the substrate solution in a concentration of 30 nM and gently mixed.
# Sequence of Casein kinase 1 delta (CSKN1D) (P48730 whole entry): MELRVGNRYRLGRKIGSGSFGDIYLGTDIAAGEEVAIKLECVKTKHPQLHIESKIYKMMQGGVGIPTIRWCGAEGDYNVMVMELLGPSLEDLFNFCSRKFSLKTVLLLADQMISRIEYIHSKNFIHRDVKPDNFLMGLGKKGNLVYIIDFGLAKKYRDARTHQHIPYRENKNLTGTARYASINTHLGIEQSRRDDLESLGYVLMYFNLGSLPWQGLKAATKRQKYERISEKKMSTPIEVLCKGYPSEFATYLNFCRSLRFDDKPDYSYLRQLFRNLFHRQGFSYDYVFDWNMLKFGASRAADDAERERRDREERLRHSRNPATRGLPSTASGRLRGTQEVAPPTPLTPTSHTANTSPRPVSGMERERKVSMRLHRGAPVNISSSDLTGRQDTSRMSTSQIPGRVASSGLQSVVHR
Compound,pIC50 [1],pIC50 [2]
"O=C(Nc1nc2cc3c(cc2[nH]1)OC(F)(F)O3)c1ccoc1 [Compound 32, N-(2,2-difluoro-5H-[1,3]dioxolo[4′,5′:4,5]benzo[1,2-d]imidazol-6-yl)furan-3-carboxamide]",6.00 to 6.70,> 6.70
"CC(=O)Nc1n[nH]c(C(=O)Nc2nc3cc4c(cc3[nH]2)OC(F)(F)O4)n1 [Compound 95, 3-acetamido-N-(2,2-difluoro-5H-[1,3]dioxolo[4′,5′:4,5]benzo[1,2-d]imidazol-6-yl)-1H-1,2,4-triazole-5-carboxamide]",< 6.00,< 6.00
"O=C(Nc1nc2cc3c(cc2[nH]1)OC(F)(F)O3)c1csc(C2CCN(c3ncnc4ccsc34)CC2)n1 [Compound 97, N-(2,2-difluoro-5H-[1,3]dioxolo[4′,5′:4,5]benzo[1,2-d]imidazol-6-yl)-2-(1-(thieno[3,2-d]pyrimidin-4-yl)piperidin-4-yl)thiazole-4-carboxamide]",6.00 to 6.70,6.00 to 6.70
"O=C(Nc1nc2cc3c(cc2[nH]1)OC(F)(F)O3)c1coc(N2CCOCC2)n1 [Compound 24, N-(2,2-difluoro-5H-[1,3]dioxolo[4′,5′:4,5]benzo[1,2-d]imidazol-6-yl)-2-morpholinooxazole-4-carboxamide]",6.00 to 6.70,6.00 to 6.70
"O=C(Cc1cccc(Cl)c1)Nc1nc2cc3c(cc2[nH]1)OC(F)(F)O3 [Compound 8B, 2-(3-chlorophenyl)-N-(2,2-difluoro-5H-[1,3]dioxolo[4′,5′:4,5]benzo[1,2-d]imidazol-6-yl)acetamide]",> 6.70,> 6.70
"O=C(Nc1nc2cc3c(cc2[nH]1)OC(F)(F)O3)c1csc(NC(=O)c2ccco2)n1 [Compound 11, N-(2,2-difluoro-5H-[1,3]dioxolo[4′,5′:4,5]benzo[1,2-d]imidazol-6-yl)-2-(furan-2-carboxamido)thiazole-4-carboxamide]",> 6.70,> 6.70
"Cc1nn(-c2ccccc2)c(C)c1C(=O)Nc1nc2cc3c(cc2[nH]1)OC(F)(F)O3 [Compound 15, N-(2,2-difluoro-5H-[1,3]dioxolo[4′,5′:4,5]benzo[1,2-d]imidazol-6-yl)-3,5-dimethyl-1-phenyl-1H-pyrazole-4-carboxamide]",< 6.00,< 6.00
"Cc1cc(C(F)(F)F)nc(Nc2nc(C(=O)Nc3nc4cc5c(cc4[nH]3)OC(F)(F)O5)cs2)n1 [Compound 25, N-(2,2-difluoro-5H-[1,3]dioxolo[4′,5′:4,5]benzo[1,2-d]imidazol-6-yl)-2-((4-methyl-6-(trifluoromethyl)pyrimidin-2-yl)amino)thiazole-4-carboxamide]",< 6.00,< 6.00
"Cc1nnsc1C(=O)Nc1nc2cc3c(cc2[nH]1)OC(F)(F)O3 [Compound 42, N-(2,2-difluoro-5H-[1,3]dioxolo[4′,5′:4,5]benzo[1,2-d]imidazol-6-yl)-4-methyl-1,2,3-thiadiazole-5-carboxamide]",< 6.00,< 6.00
"O=C(Nc1nc2cc3c(cc2[nH]1)OC(F)(F)O3)c1cc(-c2ccco2)on1 [Compound 143, N-(2,2-difluoro-5H-[1,3]dioxolo[4′,5′:4,5]benzo[1,2-d]imidazol-6-yl)-5-(furan-2-yl)isoxazole-3-carboxamide]",6.00 to 6.70,6.00 to 6.70
"O=C(Nc1nc2cc3c(cc2[nH]1)OC(F)(F)O3)c1csc(-c2cccc(Cl)c2Cl)n1 [Compound 6, 2-(2,3-dichlorophenyl)-N-(2,2-difluoro-5H-[1,3]dioxolo[4′,5′:4,5]benzo[1,2-d]imidazol-6-yl)thiazole-4-carboxamide]",< 6.00,< 6.00
"O=C(Nc1nc(C(=O)Nc2nc3cc4c(cc3[nH]2)OC(F)(F)O4)cs1)c1ccc(Cl)cc1 [Compound 8, 2-(4-chlorobenzamido)-N-(2,2-difluoro-5H-[1,3]dioxolo[4′,5′:4,5]benzo[1,2-d]imidazol-6-yl)thiazole-4-carboxamide]",6.00 to 6.70,6.00 to 6.70
"Cc1nn(C)cc1-c1cc(C(=O)Nc2nc3cc4c(cc3[nH]2)OC(F)(F)O4)no1 [Compound 144, N-(2,2-difluoro-5H-[1,3]dioxolo[4′,5′:4,5]benzo[1,2-d]imidazol-6-yl)-5-(1,3-dimethyl-1H-pyrazol-4-yl)isoxazole-3-carboxamide]",> 6.70,< 6.00
"O=C(Nc1nc2cc3c(cc2[nH]1)OC(F)(F)O3)c1cnc(NC(=O)c2ccccc2OC(F)(F)F)o1 [Compound 48, N-(2,2-difluoro-5H-[1,3]dioxolo[4′,5′:4,5]benzo[1,2-d]imidazol-6-yl)-2-(2-(trifluoromethoxy)benzamido)oxazole-5-carboxamide]",> 6.70,6.00 to 6.70
"O=C(Nc1nc2cc3c(cc2[nH]1)OC(F)(F)O3)c1nsc(NC(=O)c2ccccc2OC(F)(F)F)n1 [Compound 17, N-(2,2-difluoro-5H-[1,3]dioxolo[4′,5′:4,5]benzo[1,2-d]imidazol-6-yl)-5-(2-(trifluoromethoxy)benzamido)-1,2,4-thiadiazole-3-carboxamide]",> 6.70,> 6.70
"O=C(Nc1nc2cc3c(cc2[nH]1)OC(F)(F)O3)c1csc(-c2cscn2)n1 [Compound 135, N-(2,2-difluoro-5H-[1,3]dioxolo[4′,5′:4,5]benzo[1,2-d]imidazol-6-yl)-[2,4-bithiazole]-4-carboxamide]",> 6.70,> 6.70
"O=C(Nc1nc2cc3c(cc2[nH]1)OC(F)(F)O3)c1csc(Br)c1 [Compound 29, 5-bromo-N-(2,2-difluoro-5H-[1,3]dioxolo[4′,5′:4,5]benzo[1,2-d]imidazole-6-yl)-thiophene-3-carboxamide]",> 6.70,> 6.70
"Cn1cccc1C(=O)Nc1nc2cc3c(cc2[nH]1)OC(F)(F)O3 [Compound 20B, N-(2,2-Difluoro-5H-[1,3]dioxolo[4′,5′:4,5]benzo[1,2-d]imidazol-6-yl)-1-methyl-1H-pyrrole-2-carboxamide]",6.00 to 6.70,< 6.00
"O=C(Nc1nc2cc3c(cc2[nH]1)OC(F)(F)O3)c1c(F)cccc1F [Compound 54, N-(2,2-difluoro-5H-[1,3]dioxolo[4′,5′:4,5]benzo[1,2-d]imidazol-6-yl)-2,6-difluorobenzamide]",6.00 to 6.70,< 6.00
"O=C(Nc1nc2cc3c(cc2[nH]1)OC(F)(F)O3)c1csc(-c2cccc(Cl)c2)n1 [Compound 17B, 2-(3-chlorophenyl)-N-(2,2-difluoro-5H-[1,3]dioxolo[4′,5′:4,5]benzo[1,2-d]imidazol-6-yl)thiazole-4-carboxamide]",> 6.70,6.00 to 6.70
"COc1ccc(C(=O)Nc2nc3cc4c(cc3[nH]2)OC(F)(F)O4)cc1 [Compound 46, N-(2,2-difluoro-5H-[1,3]dioxolo[4′,5′:4,5]benzo[1,2-d]imidazol-6-yl)-4-methoxybenzamide]",6.00 to 6.70,6.00 to 6.70
"O=C(Nc1nc(C(=O)Nc2nc3cc4c(cc3[nH]2)OC(F)(F)O4)ns1)c1ccc(F)cc1 [Compound 92, N-(2,2-difluoro-5H-[1,3]dioxolo[4′,5′:4,5]benzo[1,2-d]imidazol-6-yl)-5-(4-fluorobenzamido)-1,2,4-thiadiazole-3-carboxamide]",> 6.70,> 6.70
"O=C(Nc1nc2cc3c(cc2[nH]1)OC(F)(F)O3)c1ccc(-n2cccn2)cc1 [Compound 142, N-(2,2-difluoro-5H-[1,3]dioxolo[4′,5′:4,5]benzo[1,2-d]imidazol-6-yl)-4-(1H-pyrazol-1-yl)benzamide]",> 6.70,< 6.00
"O=C(Nc1nc2cc3c(cc2[nH]1)OC(F)(F)O3)c1coc(NC(=O)c2ccco2)n1 [Compound 10, N-(2,2-difluoro-5H-[1,3]dioxolo[4′,5′:4,5]benzo[1,2-d]imidazol-6-yl)-2-(furan-2-carboxamido)oxazole-4-carboxamide]",6.00 to 6.70,< 6.00
"Cc1cc(C(=O)Nc2nc3cc4c(cc3[nH]2)OC(F)(F)O4)c(C)o1 [Compound 34, N-(2,2-difluoro-5H-[1,3]dioxolo[4′,5′:4,5]benzo[1,2-d]imidazol-6-yl)-2,5-dimethylfuran-3-carboxamide]",< 6.00,< 6.00
"O=C(Nc1nc2cc3c(cc2[nH]1)OC(F)(F)O3)c1cocn1 [Compound 35, N-(2,2-difluoro-5H-[1,3]dioxolo[4′,5′:4,5]benzo[1,2-d]imidazol-6-yl)-oxazole-4-carboxamide]",6.00 to 6.70,< 6.00
"Cc1cc(-c2nc(C(=O)Nc3nc4cc5c(cc4[nH]3)OC(F)(F)O5)cs2)no1 [Compound 141, N-(2,2-difluoro-5H-[1,3]dioxolo[4′,5′:4,5]benzo[1,2-d]imidazol-6-yl)-2-(5-methylisoxazol-3-yl)thiazole-4-carboxamide]",> 6.70,> 6.70
"Cc1nnsc1-c1nc(C(=O)Nc2nc3cc4c(cc3[nH]2)OC(F)(F)O4)cs1 [Compound 134, N-(2,2-difluoro-5H-[1,3]dioxolo[4′,5′:4,5]benzo[1,2-d]imidazol-6-yl)-2-(4-methyl-1,2,3-thiadiazol-5-yl)thiazole-4-carboxamide]",> 6.70,> 6.70
"Nc1sccc1C(=O)Nc1nc2cc3c(cc2[nH]1)OC(F)(F)O3 [Compound 79, 2-amino-N-(2,2-difluoro-5H-[1,3]dioxolo[4′,5′:4,5]benzo[1,2-d]imidazol-6-yl)thiophene-3-carboxamide]",6.00 to 6.70,6.00 to 6.70
